These are literature values, as cited in patent publication US20240180809A1, “METHOD FOR DYEING KERATIN MATERIAL, INCLUDING THE USE OF AN ORGANIC C1-C6 ALKOXY SILANE, A DYEING COMPOUND, AND A HEAT TREATMENT” (Henkel AG & Co. KGaA, priority 2021, published 2024).

With “mixture of the sodium salts of mono- and sis-sulfonic acids of 2-(2-quinolyl)-1H-indene-1,3(2H)-dione [Acid Yellow 3]”, under “25° C.”, the solubility in water was 20 mg/mL.

`CCN(Cc1cccc(S(=O)(=O)[O-])c1)c1ccc(C(=C2C=CC(=[N+](CC)Cc3cccc(S(=O)(=O)[O-])c3)C=C2)c2ccccc2S(=O)(=O)[O-])cc1.[Na+].[Na+]` [Acid Blue 9]: where the note is “25° C.”, the water solubility result was “more than 20 wt. %”.

For `Nc1cc(S(=O)(=O)[O-])cc2cc(S(=O)(=O)[O-])c(N=Nc3ccccc3)c(O)c12.[Na+].[Na+]` [Acid Red 33, disodium salt of 5-amino-4-hydroxy-3-(phenylazo)-naphthalene-2,7-disulfonate], the solubility in water (25° C.) is 2.5 mg/mL.

Regarding `O=S(=O)([O-])c1ccc(N=Nc2c(O)ccc3ccccc23)cc1.[Na+]` [Acid Orange 7, sodium salt of 4-[(2-hydroxy-1-naphthyl)azo]benzene sulphonate], the solubility in water result (25° C.) is “more than 7 g/L”.

With `O=C([O-])C1=NN(c2ccc(S(=O)(=O)[O-])cc2)C(=O)C1N=Nc1ccc(S(=O)(=O)[O-])cc1.[Na+].[Na+].[Na+]` (stereo not drawn) [Acid Yellow 23, trisodium salt of 4,5-dihydro-5-oxo-1-(4-sulfophenyl)-4-((4-sulfophenyl)azo)-1H-pyrazole-3-carboxylic acid], the “solubility in water (in words)” value (in water at 25° C.) was “readily soluble”.

For the compound `O=C([O-])c1c(Cl)c(Cl)c(Cl)c(Cl)c1-c1c2cc(Br)c(=O)c(Br)c-2oc2c(Br)c([O-])c(Br)cc12.[Na+].[Na+]` [Acid Red 92, disodium salt of 3,4,5,6-tetrachloro-2-(1,4,5,8-tetrabromo-6-hydroxy-3-oxanthene-9-yl) benzoic acid], where the note is “25° C.”, the solubility in water entry is “greater than 10 g/L”.
